# Results reported in PMC6934184, “Selective DNA-PKcs inhibition extends the therapeutic index of localized radiotherapy and chemotherapy” (The Journal of Clinical Investigation, 2019).
# Molecular target: T1, MAPKAPK2 (Homo sapiens, UniProt P49137)
# T1 construct: purchased Thermo Fisher Scientific (Life Technologies) SelectScreen
# Experiment: SelectScreen Z'LYTE
# Format: biochemical
# Method in brief: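 NU5455 was profiled across the SelectScreen Broad panel of kinase activity and binding assays. Z'LYTE reactions such as CSF1R ran at apparent Km ATP, while the Adapta CAMK1 assay used ATP listed as 10. Values are given as percent.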
# T1 sequence (P49137 whole entry): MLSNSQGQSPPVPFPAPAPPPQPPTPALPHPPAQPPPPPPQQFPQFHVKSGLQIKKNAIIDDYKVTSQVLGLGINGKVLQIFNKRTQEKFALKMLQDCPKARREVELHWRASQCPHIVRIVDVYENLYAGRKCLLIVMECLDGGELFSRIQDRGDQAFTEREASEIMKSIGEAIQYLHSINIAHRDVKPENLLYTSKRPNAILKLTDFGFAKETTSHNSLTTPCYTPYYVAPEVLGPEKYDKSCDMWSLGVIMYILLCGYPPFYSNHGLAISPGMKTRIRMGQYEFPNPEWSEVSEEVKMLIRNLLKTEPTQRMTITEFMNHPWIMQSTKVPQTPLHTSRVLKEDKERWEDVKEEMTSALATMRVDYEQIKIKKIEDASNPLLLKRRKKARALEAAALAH
smiles,measurement,value
CN(C(=O)CN1CCOCC1)c1ccc2sc3c(-c4cccc5c(=O)cc(N6CC7CCC(C6)O7)oc45)cccc3c2c1 [NU5455],inhibition at 1 µM,-3.1%
